15 molecules from ChEMBL document CHEMBL1124332, “2-(Alkylamino)tetralin derivatives: interaction with 5-HT1A serotonin binding sites” (J Med Chem, 1989) can be followed below.

In assay [1] the target is T1, 5-hydroxytryptamine receptor 1A (Rattus norvegicus) (UniProt P19327).
T1 sequence (whole entry): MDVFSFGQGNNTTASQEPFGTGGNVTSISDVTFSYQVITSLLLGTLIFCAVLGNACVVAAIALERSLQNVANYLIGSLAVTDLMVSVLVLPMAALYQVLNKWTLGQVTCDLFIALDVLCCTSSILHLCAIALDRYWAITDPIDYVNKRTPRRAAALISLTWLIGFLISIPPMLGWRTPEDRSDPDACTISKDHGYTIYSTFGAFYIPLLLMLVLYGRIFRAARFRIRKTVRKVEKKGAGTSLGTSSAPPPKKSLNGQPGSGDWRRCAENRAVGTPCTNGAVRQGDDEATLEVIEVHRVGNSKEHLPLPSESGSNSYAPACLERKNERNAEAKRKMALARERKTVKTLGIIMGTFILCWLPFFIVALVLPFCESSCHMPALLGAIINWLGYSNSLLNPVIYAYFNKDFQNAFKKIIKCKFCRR
The assay is described as follows: Binding affinity at [3H]8-OH-DPAT-Labeled 5-hydroxytryptamine 1A receptor sites in rat brain hippocampal membranes expressed as Hill values. The format is cell membranes.

The target in assay [2] is T2, 5-hydroxytryptamine receptor 1A (Rattus norvegicus, UniProt P19327).
T2 sequence (P19327 whole entry): T1 sequence (whole entry)
The assay is described as follows: Binding affinity at [3H]8-OH-DPAT-Labeled 5-hydroxytryptamine 1A receptor sites in rat brain hippocampal membranes. The class given is cell membranes.

Turning to `CCCNC1CCc2ccccc2C1` (stereo not drawn), the Hill coefficient (in general, the slope factor of the fitted curve) in assay [1] stood at 0.74. In addition, in assay [2], affinity was put at a Ki of 19 nM.

Regarding `c1ccc(CCCNC2CCc3cccc(OCc4ccccc4)c3C2)cc1` (stereo not drawn), the Hill coefficient in assay [1] stood at 0.91. For the same molecule, in assay [2], affinity was put at a Ki of 10 nM.

`COc1cccc2c1CC(NCCCCc1ccccc1)CC2` (stereo not drawn) yielded a Hill coefficient in assay [1] of 0.92. Besides, the Ki (usually a measure of affinity in units of concentration, obtained from inhibition or displacement) in assay [2] came to 5.6 nM.

As for `CCCNC1CCc2cccc(OC)c2C1` (stereo not drawn), the Hill coefficient in assay [1] was determined as 0.8. In assay [2], this molecule gave a Ki of 2.3 nM.

In assay [1], `COc1cccc2c1CC(N(C)Cc1ccccc1)CC2` (stereo not drawn) gave a Hill coefficient of 0.91. The molecule also gave a Ki in assay [2] of 78 nM.

Turning to `COc1cccc2c1CC(N(C)CCCc1ccccc1)CC2` (stereo not drawn), in assay [1], the Hill coefficient is 0.94. The molecule further had a Ki in assay [2] of 2 nM.

As for `c1ccc(CCCNC2CCc3ccccc3C2)cc1` (stereo not drawn), the Hill coefficient in assay [1] came out at 1.06. This molecule also had a Ki in assay [2] of 13 nM.

With `Oc1cccc2c1CC(NCCCc1ccccc1)CC2` (stereo not drawn), the Hill coefficient in assay [1] was 0.87. Moreover, the Ki in assay [2] was found to be 1.9 nM.

`COc1cccc2c1CC(N)CC2` (stereo not drawn): the Hill coefficient in assay [1] was 0.77. Affinity in assay [2] was put at a Ki of 53 nM.

`COc1cccc2c1CC(N(C)CCc1ccccc1)CC2` (stereo not drawn) registered a Hill coefficient in assay [1] of 0.9. Besides, the affinity in assay [2], expressed as Ki, was 7.9 nM.

In turn, `CCCN(C)C1CCc2cccc(OC)c2C1` (stereo not drawn) showed a Hill coefficient in assay [1] of 0.91. The affinity in assay [2], expressed as Ki, was 2.1 nM.

Regarding `COc1cccc2c1CC(NCCCc1ccccc1)CC2` (stereo not drawn), the Hill coefficient in assay [1] stood at 0.83. Further, the Ki in assay [2] was 2.5 nM.

Molecule `COc1cccc2c1CC(NCCc1ccccc1)CC2` (stereo not drawn) registered a Hill coefficient in assay [1] of 0.85. Besides, the Ki in assay [2] turned out to be 44 nM.

In assay [1], `CCCN(CCC)C1CCc2cccc(OC)c2C1` (stereo not drawn) showed a Hill coefficient of 0.78.

Regarding `CCCN(CCC)C1CCc2cccc(O)c2C1` (stereo not drawn), the Hill coefficient in assay [1] was determined as 1.01.
